23 molecules from patent US8022217B2, “Compounds suitable as modulators of HDL” (Cadila Healthcare Limited, priority 2006, dated 2011) can be followed below.

Structures can show the parent of a compound that is named as a salt.

One may read the IC50 as the point on the concentration scale where inhibition reaches its midpoint. Usually inhibition stands for the share of the control response that was lost under treatment.

The first assay concerns the target T1, recombinant CETP (Homo sapiens, UniProt P11597).
T1 sequence (P11597 18-493): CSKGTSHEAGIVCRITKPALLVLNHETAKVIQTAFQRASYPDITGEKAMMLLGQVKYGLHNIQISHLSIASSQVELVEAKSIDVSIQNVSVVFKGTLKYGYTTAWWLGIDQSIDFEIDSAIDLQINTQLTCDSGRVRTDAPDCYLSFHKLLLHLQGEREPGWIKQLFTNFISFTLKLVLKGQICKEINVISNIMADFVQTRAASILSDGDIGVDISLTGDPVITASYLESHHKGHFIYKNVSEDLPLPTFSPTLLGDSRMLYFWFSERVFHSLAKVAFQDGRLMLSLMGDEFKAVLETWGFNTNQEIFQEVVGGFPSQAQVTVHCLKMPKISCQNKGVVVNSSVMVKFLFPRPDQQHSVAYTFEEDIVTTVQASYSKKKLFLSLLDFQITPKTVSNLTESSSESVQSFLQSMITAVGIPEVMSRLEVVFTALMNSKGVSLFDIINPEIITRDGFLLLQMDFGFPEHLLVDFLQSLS
Briefly: CETP in-vitro assay (Scintillation Proximity Assay, transfer of [3H] cholesteryl ester from HDL to biotinylated LDL). Format: biochemical. To be noted: CETP inhibition in human plasma.
As to `CC(C)(C)c1ccc(CN(CCc2ccc(O[Si](C)(C)C)cc2)C(=O)c2cccc3c2NCCC3)cc1` [Compound 47, 1,2,3,4-Tetrahydro-quinoline-8-carboxylic acid (4-tert-butyl-benzyl)-[2-(4-trimethylsilanyloxy-phenyl)-ethyl]-amide], the half-maximal inhibitory concentration (IC50) stood at 0.167 µM. Still for that read-out and setting: next, `CC(C)(C)c1ccc(CN(CCc2ccc(Cl)c(Cl)c2)C(=O)c2cc(F)cc3c2NCCC3)cc1.Cl` [Compound 50, 6-Fluoro-1,2,3,4-tetrahydro-quinoline-8-carboxylic acid (4-tert-butyl-benzyl)-[2-(3,4-dichloro-phenyl)-ethyl]-amide; hydrochloride salt]: 0.03 µM; `CC(C)(C)c1ccc(CN(CCc2ccccc2F)C(=O)c2cccc3c2NCCC3)cc1` [Compound 22, 1,2,3,4-Tetrahydro-quinoline-8-carboxylic acid (4-tert-butyl-benzyl)-[2-(2-fluoro-phenyl)-ethyl]-amide]: 0.455 µM.

The next assay has as its target T1, recombinant CETP. Described as above. Format: biochemical.
Conditions: not given
On the procedure: This assay used a commercially available Scintillation Proximity Assay kit (Amersham TRKQ7015) with modifications for measuring CETP activity. [^3H] Cholesteryl ester HDL was mixed with non radioactive HDL prepared from human plasma at an appropriate ratio in order to ensure a proper transfer of cholesteryl esters. Transfer of [^3H] Cholesteryl esters from high density lipoprotein (HDL) to biotinylated low density lipoprotein (LDL) was measured following incubation of donor and acceptor particles in the presence of recombinant CETP. Following overnight incubation, the reaction was terminated and transfer was measured in a single step addition of streptavidin coated beads formulated in an assay terminal buffer. The rate of increase in signal was proportional to the transfer of [^3H] Cholesteryl ester by CETP.
As to `CC(C)(C)c1ccc(CN(CCc2ccc(Cl)c(Cl)c2)C(=O)c2cc(F)cc3c2NCCC3)cc1.Cl` [Compound 50, 6-Fluoro-1,2,3,4-tetrahydro-quinoline-8-carboxylic acid (4-tert-butyl-benzyl)-[2-(3,4-dichloro-phenyl)-ethyl]-amide; hydrochloride salt], the “% of CETP inhibition at 10 μmole concentration” value was determined as 90%.

The same assay, now with this note: 10 μmole concentration.
Take `CC(C)(C)c1ccc(CN(CCc2ccc(Cl)c(Cl)c2)C(=O)c2cc(F)cc3c2NCCC3)cc1` [Compound 32, 6-Fluoro-1,2,3,4-tetrahydro-quinoline-8-carboxylic acid (4-tert-butyl-benzyl)-[2-(3,4-dichloro-phenyl)-ethyl]-amide]: the inhibition at 10 µM stood at 82%. Same read-out and setting: the result for `CC(C)(C)c1ccc(CN(CCc2ccc(Cl)c(Cl)c2)C(=O)c2cc(Cl)cc3c2NCCC3)cc1` [Compound 35, 6-Chloro-1,2,3,4-tetrahydro-quinoline-8-carboxylic acid (4-tert-butyl-benzyl)-[2-(3,4-dichloro-phenyl)-ethyl]-amide] reads 85%; that for `CC(C)(C)c1ccc(CN(CCc2ccc(Cl)c(Cl)c2)C(=O)c2cccc3c2NCCC3)cc1` [Compound 48, 1,2,3,4-Tetrahydro-quinoline-8-carboxylic acid (4-tert-butyl-benzyl)-[2-(3,4-dichloro-phenyl)-ethyl]-amide; hydrochloride salt], 79%.

In the case of `CCN(CC)c1ccc(CCN(Cc2ccc(C(C)(C)C)cc2)C(=O)c2cccc3c2NCCC3)cc1` [Compound 28, 1,2,3,4-Tetrahydro-quinoline-8-carboxylic acid (4-tert-butyl-benzyl)-[2-(4-diethylamino-phenyl)-ethyl]-amide], the inhibition at 10 µM was determined as 80%. As for `CC(C)(C)c1ccc(CN(CCc2ccc(O[Si](C)(C)C)cc2)C(=O)c2cccc3c2NCCC3)cc1` [Compound 47, 1,2,3,4-Tetrahydro-quinoline-8-carboxylic acid (4-tert-butyl-benzyl)-[2-(4-trimethylsilanyloxy-phenyl)-ethyl]-amide], the inhibition at 10 µM is 76%.

Consider `CC(C)(C)c1ccc(CN(CCc2ccc(F)cc2)C(=O)c2cc(F)cc3c2NCCC3)cc1` [Compound 24, 6-Fluoro-1,2,3,4-tetrahydro-quinoline-8-carboxylic acid (4-tert-butyl-benzyl)-[2-(4-fluoro-phenyl)-ethyl]-amide], for which the inhibition at 10 µM worked out at 76%. `CC(C)(C)c1ccc(CN(CCc2ccc(F)cc2)C(=O)c2ccc(Cl)c3c2NCCC3)cc1` [Compound 7, 5-Chloro-1,2,3,4-tetrahydro-quinoline-8-carboxylic acid (4-tert-butyl-benzyl)-[2-(4-fluoro-phenyl)-ethyl]-amide]: the inhibition at 10 µM turned out to be 67%.

With `O=C(c1cccc2c1NCCC2)N(CCc1ccc(F)cc1)Cc1ccc(C(F)(F)F)cc1` [Compound 14, 1,2,3,4-Tetrahydro-quinoline-8-carboxylic acid [2-(4-fluoro-phenyl)-ethyl]-(4-trifluoromethyl-benzyl)-amide], the inhibition at 10 µM was 74%. The same measure, in the same setting: the result for `Cc1cc2c(c(C(=O)N(CCc3ccc(Cl)c(Cl)c3)Cc3ccc(C(C)(C)C)cc3)c1)NCCC2` [Compound 31, 6-Methyl-1,2,3,4-tetrahydro-quinoline-8-carboxylic acid (4-tert-butyl-benzyl)-[2-(3,4-dichloro-phenyl)-ethyl]-amide] reads 82%; that for `Cc1ccc(CN(CCc2ccc(Cl)c(Cl)c2)C(=O)c2cccc3c2NCCC3)cc1` [Compound 29, 1,2,3,4-Tetrahydro-quinoline-8-carboxylic acid [2-(3,4-dichloro-phenyl)-ethyl]-(4-methyl-benzyl)-amide], 83%; that for `CC(C)(C)c1ccc(CN(CCc2cccc(Cl)c2)C(=O)c2cccc3c2NCCC3)cc1` [Compound 10, 1,2,3,4-Tetrahydro-quinoline-8-carboxylic acid (4-tert-butyl-benzyl)-[2-(3-chloro-phenyl)-ethyl]-amide], 57%.

As to `CC(C)(C)c1ccc(CN(CCc2cccc3ccccc23)C(=O)c2cccc3c2NCCC3)cc1` [Compound 37, 1,2,3,4-Tetrahydro-quinoline-8-carboxylic acid (4-tert-butyl-benzyl)-(2-naphthalen-1-yl-ethyl)-amide], the inhibition at 10 µM turned out to be 86%. Still for that read-out and setting: the result for `CC(C)(C)c1ccc(CN(CCc2ccc(F)c(F)c2)C(=O)c2cc(Cl)cc3c2NCCC3)cc1` [Compound 40, 6-Chloro-1,2,3,4-tetrahydro-quinoline-8-carboxylic acid (4-tert-butyl-benzyl)-[2-(3,4-difluoro-phenyl)-ethyl]-amide] reads 89%; that for `CC(C)(C)c1ccc(CN(CCc2ccc3c(c2)OCO3)C(=O)c2cccc3c2NCCC3)cc1` [Compound 38, 1,2,3,4-Tetrahydro-quinoline-8-carboxylic acid (2-benzo[1,3]dioxol-5-yl-ethyl)-(4-tert-butyl-benzyl)-amide], 78%; that for `COc1ccc(CCN(Cc2ccc(C(C)(C)C)cc2)C(=O)c2cccc3c2NCCC3)cc1` [Compound 17, 1,2,3,4-Tetrahydro-quinoline-8-carboxylic acid (4-tert-butyl-benzyl)-[2-(4-methoxy-phenyl)-ethyl]-amide], 92%. On the same count and under the same terms, next, `CC(C)(C)c1ccc(CN(CCc2ccc(F)cc2)C(=O)c2cccc3c2NCCC3)cc1` [Compound 1, 1,2,3,4-Tetrahydro-quinoline-8-carboxylic acid (4-tert-butyl-benzyl)-(2-(4-fluoro-phenyl)-ethyl)-amide]: 43%; `COc1ccc(CCN(Cc2ccc(C(C)(C)C)cc2)C(=O)c2cccc3c2NCCC3)cc1OC` [Compound 43, 1,2,3,4-Tetrahydro-quinoline-8-carboxylic acid (4-tert-butyl-benzyl)-[2-(3,4-dimethoxy-phenyl)-ethyl]-amide]: 80%; `Cc1cc2c(c(C(=O)N(CCc3ccc(F)cc3)Cc3ccc(C(C)(C)C)cc3)c1)NCCC2` [Compound 13, 6-Methyl-1,2,3,4-tetrahydro-quinoline-8-carboxylic acid (4-tert-butyl-benzyl)-[2-(4-fluoro-phenyl)-ethyl]-amide]: 80%. The same measure, in the same setting: next, `CC(C)(C)c1ccc(CN(Cc2cccc(Cl)c2)C(=O)c2cccc3c2NCCC3)cc1` [Compound 21, 1,2,3,4-Tetrahydro-quinoline-8-carboxylic acid (4-tert-butyl-benzyl)-(3-chloro-benzyl)-amide]: 77%; `CC(C)(C)c1ccc(CN(CCc2ccccc2F)C(=O)c2cccc3c2NCCC3)cc1` [Compound 22, 1,2,3,4-Tetrahydro-quinoline-8-carboxylic acid (4-tert-butyl-benzyl)-[2-(2-fluoro-phenyl)-ethyl]-amide]: 94%.

In the case of `CC(C)(C)c1ccc(CN(CCc2ccc(O)cc2)C(=O)c2cccc3c2NCCC3)cc1` [Compound 42, 1,2,3,4-Tetrahydro-quinoline-8-carboxylic acid (4-tert-butyl-benzyl)-[2-(4-hydroxy-phenyl)-ethyl]-amide], the inhibition at 10 µM came to 99%.

As for `CC(C)(C)c1ccc(CN(CCc2ccc(Cl)c(F)c2)C(=O)c2cc(Cl)cc3c2NCCC3)cc1` [Compound 45, 6-Chloro-1,2,3,4-tetrahydro-quinoline-8-carboxylic acid (4-tert-butyl-benzyl)-[2-(4-chloro-3-fluoro-phenyl)-ethyl]-amide], the inhibition at 10 µM was determined as 88%.
